Source: the NIST ThermoML archive (doi:10.1021/acs.jced.6b00430)

Test: xn = mol fraction of the nth substance listed
Conditions: 100 kPa, Liquid; for electrical conductivity: Alternating current cell with electrodes; for viscosity: Capillary tube (Ostwald / Ubbelohde) method; for mass density: Vibrating tube method

O=[PH](O)O [phosphonic acid] + O
Conditions	electrical conductivity [S/m]	mass density [kg/m3]	viscosity [mPa·s]
298.15 K, x1 = 0.0122	7.43	1022.04	0.962
298.15 K, x1 = 0.0215	10.4	1039.69	1.05
298.15 K, x1 = 0.0299	13.4	1055.02	1.17
298.15 K, x1 = 0.0403	16.9	1073.24	–
298.15 K, x1 = 0.0451	–	1081.91	–
298.15 K, x1 = 0.0484	18.5	1087.03	–
298.15 K, x1 = 0.0541	20	1096.6	–
298.15 K, x1 = 0.0682	22.1	1119.23	–
298.15 K, x1 = 0.0704	22.4	1122.59	1.64
298.15 K, x1 = 0.0799	23.9	1137.16	–
298.15 K, x1 = 0.0832	–	1141.9	–
298.15 K, x1 = 0.1011	25.9	1167.81	2.06
298.15 K, x1 = 0.1335	26	1210.62	2.6
298.15 K, x1 = 0.1689	25.7	1252.12	–
298.15 K, x1 = 0.1909	25.2	1275.45	–
298.15 K, x1 = 0.197	25	1281.23	–
298.15 K, x1 = 0.2154	24.5	1299.73	4.24
298.15 K, x1 = 0.2524	23.1	1332.1	5.19
298.15 K, x1 = 0.292	20.7	1363.42	6.26
298.15 K, x1 = 0.3959	15.4	1434.35	–
308.15 K, x1 = 0.0122	7.89	1018.53	0.782
308.15 K, x1 = 0.0215	11.3	1035.86	0.852
308.15 K, x1 = 0.0299	14.3	1050.95	0.94
308.15 K, x1 = 0.0403	18.4	1068.89	–
308.15 K, x1 = 0.0451	–	1077.48	–
308.15 K, x1 = 0.0484	20	1082.48	–
308.15 K, x1 = 0.0541	21.3	1091.91	–
308.15 K, x1 = 0.0682	23.9	1114.22	–
308.15 K, x1 = 0.0704	24.2	1117.57	1.31
308.15 K, x1 = 0.0799	25.5	1131.9	–
308.15 K, x1 = 0.0832	–	1136.63	–
308.15 K, x1 = 0.1011	27.4	1162.2	1.65
308.15 K, x1 = 0.1335	28.6	1204.48	2.08
308.15 K, x1 = 0.1689	28.5	1245.45	–
308.15 K, x1 = 0.1909	28.5	1268.54	–
308.15 K, x1 = 0.197	28	1274.31	–
308.15 K, x1 = 0.2154	28	1292.62	3.32
308.15 K, x1 = 0.2524	25.8	1324.67	4.12
308.15 K, x1 = 0.292	23.9	1355.74	4.94
308.15 K, x1 = 0.3959	18.5	1426.18	–
318.15 K, x1 = 0.0122	8.18	1013.66	0.636
318.15 K, x1 = 0.0215	11.8	1030.98	0.689
318.15 K, x1 = 0.0299	15	1045.97	0.754
318.15 K, x1 = 0.0403	19.2	1063.78	–
318.15 K, x1 = 0.0451	–	1072.47	–
318.15 K, x1 = 0.0484	20.9	1077.26	–
318.15 K, x1 = 0.0541	22.4	1086.62	–
318.15 K, x1 = 0.0682	25.4	1108.74	–
318.15 K, x1 = 0.0704	25.8	1112.04	1.06
318.15 K, x1 = 0.0799	27.3	1126.27	–
318.15 K, x1 = 0.0832	–	1130.94	–
318.15 K, x1 = 0.1011	29.7	1156.21	1.32
318.15 K, x1 = 0.1335	31.3	1198.05	1.66
318.15 K, x1 = 0.1689	31.5	1238.7	–
318.15 K, x1 = 0.1909	31.2	1261.54	–
318.15 K, x1 = 0.197	30.8	1267.22	–
318.15 K, x1 = 0.2154	30	1285.38	2.68
318.15 K, x1 = 0.2524	28.8	1317.07	3.27
318.15 K, x1 = 0.292	27.2	1347.86	3.9
318.15 K, x1 = 0.3959	21.1	1418.01	–
328.15 K, x1 = 0.0122	8.38	1009.46	0.529
328.15 K, x1 = 0.0215	12.1	1026.28	0.567
328.15 K, x1 = 0.0299	15.3	1041.02	0.617
328.15 K, x1 = 0.0403	19.6	1058.55	–
328.15 K, x1 = 0.0451	–	1066.53	–
328.15 K, x1 = 0.0484	21.9	1071.83	–
328.15 K, x1 = 0.0541	23.5	1081.05	–
328.15 K, x1 = 0.0682	26.5	1102.88	–
328.15 K, x1 = 0.0704	26.9	1106.07	0.866
328.15 K, x1 = 0.0799	28.6	1120.18	–
328.15 K, x1 = 0.0832	–	1124.84	–
328.15 K, x1 = 0.1011	31	1149.89	1.07
328.15 K, x1 = 0.1335	33.3	1191.35	1.35
328.15 K, x1 = 0.1689	33.8	1231.63	–
328.15 K, x1 = 0.1909	33.3	1254.36	–
328.15 K, x1 = 0.197	33.2	1259.95	–
328.15 K, x1 = 0.2154	32.5	1277.98	2.2
328.15 K, x1 = 0.2524	31.3	1309.72	2.65
328.15 K, x1 = 0.292	30.2	1340.42	3.14
328.15 K, x1 = 0.3959	24.1	1409.83	–
338.15 K, x1 = 0.0122	8.4	1001.4	0.464
338.15 K, x1 = 0.0215	12.2	1018.77	0.49
338.15 K, x1 = 0.0299	15.6	1033.72	0.531
338.15 K, x1 = 0.0403	20.3	1051.48	–
338.15 K, x1 = 0.0451	–	1060.26	–
338.15 K, x1 = 0.0484	22.9	1064.9	–
338.15 K, x1 = 0.0541	24.2	1074.21	–
338.15 K, x1 = 0.0682	27.7	1096.19	–
338.15 K, x1 = 0.0704	28.2	1099.46	0.749
338.15 K, x1 = 0.0799	30	1113.58	–
338.15 K, x1 = 0.0832	–	1118.32	–
338.15 K, x1 = 0.1011	32.9	1143.23	0.922
338.15 K, x1 = 0.1335	35.3	1184.38	1.16
338.15 K, x1 = 0.1689	35.5	1224.52	–
338.15 K, x1 = 0.1909	35	1246.94	–
338.15 K, x1 = 0.197	34.9	1252.51	–
338.15 K, x1 = 0.2154	34.1	1270.41	1.88
338.15 K, x1 = 0.2524	33.5	1301.38	2.25
338.15 K, x1 = 0.292	32.4	1331.63	2.66
338.15 K, x1 = 0.3959	25.9	1401.65	–
